Data reported in US10676479B2, “Imidazolepyridine compounds and uses thereof” (Novartis AG, priority 2016, dated 2020).

Assays:
[1] = system: H3K27 methylation in G401 cell; experiment: ELISA (H3K27 methylation) assay; format: cell-based; conditions: Homo sapiens, G-401, ELISA Qualified assay, 48 h, read-out: (c) IC50
Experimental: ELISA (H3K27 Methylation) Assay
Representative compounds of the present invention were serially and separately diluted 3-fold in DMSO to obtain a total of eight or twelve concentrations. Then the compounds were added to G401 cell cultured in 384-well plate at 1:500 dilution to obtain the highest concentration of 20 μM. The cells were further cultured for 48 h before ELISA procedure.
ELISA protocol: Cell lysates were transferred to the wells of a 384-well plate and the final volume was adjusted to 50 μL per well with PBS. The plate was sealed, centrifuged at 2,000 rpm for 2 min and incubated at 4° C. for about 16 h. The plate was washed with TBST buffer (1×TBS (10×TBS: 24.2 g Tris (Sigma, T6066), 80 g NaCl (Sigma, S3014) to 1 L of water and adjust pH to 7.6 with HCl) with 0.1% Tween-20). Blocking buffer (TBST, 5% BSA; 50 μL per well) was added and the plate was incubated for 1 h at rt. The blocking buffer was removed and primary antibody was added (30 μL per well). […] The primary antibody was incubated in the plate at rt for 1 h. The wells were washed with TBST and incubated with secondary antibody for 1 h at rt. […] After 1 h of incubation at rt, the wells were washed with TBST. […] The signal was read using a PerkinElmer Envision Reader. The H3K27 methylation readouts were normalized using H3 signal and then percentage inhibition was calculated against the samples treated with DMSO. The data were then fit to a dose response curve using the program Helios to get the IC50 values of the test compound.

[2] = molecular target: wild type PRC2 (wtPRC2) complex (Homo sapiens (Human), UniProt O75530); experiment: EED LC-MS assay; format: biochemical; conditions: EED LC-MS Qualified assay; read-out: (b) IC50
Chain of wild type PRC2 (wtPRC2) complex (O75530 whole entry): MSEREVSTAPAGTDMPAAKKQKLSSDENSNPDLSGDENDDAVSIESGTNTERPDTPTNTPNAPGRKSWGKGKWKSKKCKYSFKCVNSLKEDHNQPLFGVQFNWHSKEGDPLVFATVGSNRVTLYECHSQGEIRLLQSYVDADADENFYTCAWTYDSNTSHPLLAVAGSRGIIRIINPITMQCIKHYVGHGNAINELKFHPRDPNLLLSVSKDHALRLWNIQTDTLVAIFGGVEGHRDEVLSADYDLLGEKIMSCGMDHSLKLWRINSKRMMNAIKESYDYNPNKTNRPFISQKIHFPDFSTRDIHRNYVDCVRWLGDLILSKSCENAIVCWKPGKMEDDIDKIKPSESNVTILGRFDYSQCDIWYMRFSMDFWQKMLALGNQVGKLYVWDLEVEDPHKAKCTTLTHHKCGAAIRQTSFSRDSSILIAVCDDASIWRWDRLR
Chain of wild type PRC2 (wtPRC2) complex (Q15910 whole entry partner): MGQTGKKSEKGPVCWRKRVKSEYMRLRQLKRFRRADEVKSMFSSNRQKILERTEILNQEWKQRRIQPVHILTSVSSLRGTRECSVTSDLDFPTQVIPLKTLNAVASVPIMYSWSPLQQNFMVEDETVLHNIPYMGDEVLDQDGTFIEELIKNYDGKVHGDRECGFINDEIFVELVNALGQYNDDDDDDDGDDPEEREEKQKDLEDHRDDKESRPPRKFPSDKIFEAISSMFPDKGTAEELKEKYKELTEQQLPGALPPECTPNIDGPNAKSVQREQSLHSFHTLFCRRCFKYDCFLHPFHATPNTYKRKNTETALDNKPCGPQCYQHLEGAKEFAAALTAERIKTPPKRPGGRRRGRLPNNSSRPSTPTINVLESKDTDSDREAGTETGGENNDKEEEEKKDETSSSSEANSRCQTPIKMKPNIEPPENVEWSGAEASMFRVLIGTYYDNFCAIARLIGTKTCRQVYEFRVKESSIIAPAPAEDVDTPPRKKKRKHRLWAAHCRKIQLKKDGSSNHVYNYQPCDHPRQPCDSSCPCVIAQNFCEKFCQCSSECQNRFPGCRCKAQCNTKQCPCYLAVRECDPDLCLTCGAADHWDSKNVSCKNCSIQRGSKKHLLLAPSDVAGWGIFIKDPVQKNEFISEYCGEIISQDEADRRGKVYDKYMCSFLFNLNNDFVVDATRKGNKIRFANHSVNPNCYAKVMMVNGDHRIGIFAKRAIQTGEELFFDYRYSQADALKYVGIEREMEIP
Chain of wild type PRC2 (wtPRC2) complex (Q15022 whole entry partner): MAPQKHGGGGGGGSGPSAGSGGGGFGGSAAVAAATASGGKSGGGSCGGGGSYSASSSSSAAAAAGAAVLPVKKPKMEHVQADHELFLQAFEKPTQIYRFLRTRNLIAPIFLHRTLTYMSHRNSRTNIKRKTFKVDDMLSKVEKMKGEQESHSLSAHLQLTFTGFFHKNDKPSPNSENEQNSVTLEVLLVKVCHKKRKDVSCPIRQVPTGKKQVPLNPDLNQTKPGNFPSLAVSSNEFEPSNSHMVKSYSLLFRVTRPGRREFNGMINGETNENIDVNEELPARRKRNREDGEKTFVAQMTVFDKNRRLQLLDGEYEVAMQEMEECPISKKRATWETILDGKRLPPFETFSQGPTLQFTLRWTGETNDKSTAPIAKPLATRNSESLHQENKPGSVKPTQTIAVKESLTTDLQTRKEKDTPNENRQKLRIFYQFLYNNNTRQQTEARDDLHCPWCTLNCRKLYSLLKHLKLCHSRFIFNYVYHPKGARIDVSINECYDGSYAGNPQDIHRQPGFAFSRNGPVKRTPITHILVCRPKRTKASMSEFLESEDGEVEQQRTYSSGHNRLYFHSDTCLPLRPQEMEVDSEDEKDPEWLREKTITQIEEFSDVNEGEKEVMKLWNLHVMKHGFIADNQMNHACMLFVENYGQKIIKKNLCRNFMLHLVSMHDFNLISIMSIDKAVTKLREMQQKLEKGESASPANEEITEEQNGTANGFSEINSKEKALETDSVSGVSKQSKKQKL
Experimental: EED LC-MS Assay Representative compounds of the present invention were serially and separately diluted 3-fold in DMSO to obtain a total of eight or twelve concentrations. […] A 6 μL solution of 3 μM of the peptide substrate H3K27Me0 (histone H3[21-44]-biotin) in reaction buffer was added to initiate each reaction. […] The data were then fit to a dose response equation using the program Helios to get the IC50 values of the test compound.

EED (1-441)-His protein = EED (1-441)-His protein (Homo sapiens (Human), UniProt O75530); experiment: EED-H3K27Me3 peptide competition binding assay by AlphaScreen; conditions: EED Alphascreen binding Qualified assay
Chain of EED (1-441)-His protein (O75530 whole entry): as the sequence (O75530 whole entry) above
Experimental: Then 4 μL of detection beads mix was added to the plate and incubate in the dark at the rt for 1 h. The final concentration of donor and acceptor beads was 10 μg/mL for each. […] The data were then fit to a dose response equation using the program Helios (Novartis) to get the IC50 values. […] Sebaugh, J. […] Each compound was counter screened to determine if it interfered with the AlphaScreen beads. […] The plates were then incubated for 1 h at rt in dark before being read on EnVison.

Row | SMILES | IC50 [1] [µM] | IC50 [2] [µM] | IC50 (EED (1-441)-His protein) [µM]
1 | Cc1ncc(-c2cnc(NCc3c(F)ccc4c3CCO4)n3cnc(C#N)c23)c(C)n1 [Example 3, 8-(2,4-dimethylpyrimidin-5-yl)-5-(((5-fluoro-2,3-dihydrobenzofuran-4-yl)methyl)amino)imidazo[1,5-c]pyrimidine-1-carbonitrile] | 0.0132 | 0.0137 | 0.0068
2 | NS(=O)(=O)c1ccc(-c2cnc(NCc3c(F)ccc4c3CCO4)n3cncc23)cc1 [Example 23, 4-(5-(((5-fluoro-2,3-dihydrobenzofuran-4-yl)methyl)amino)imidazo[1,5-c]pyrimidin-8-yl)benzenesulfonamide] | 0.0336 | 0.0129 | 0.0127
3 | Cc1nc(N2CCOCC2)ncc1-c1cnc(NCc2c(F)ccc3c2CCO3)n2cnc(C#N)c12 [Example 84, 5-(((5-fluoro-2,3-dihydrobenzofuran-4-yl)methyl)amino)-8-(4-methyl-2-morpholinopyrimidin-5-yl)imidazo[1,5-c]pyrimidine-1-carbonitrile] | 0.0117 | 0.011 | 0.0024
4 | CS(=O)(=O)c1ncn2c(NCc3c(F)ccc4c3CCO4)ncc(Br)c12 [Example 103, 8-bromo-N-((5-fluoro-2,3-dihydrobenzofuran-4-yl)methyl)-1-(methylsulfonyl)imidazo[1,5-c]pyrimidin-5-amine] | 0.0361 | 0.01 | 0.005
5 | COc1cccc(F)c1CNc1ncc(-c2cccnc2C)c2c(C#N)ncn12 [Example 90, 5-((2-fluoro-6-methoxybenzyl)amino)-8-(2-methylpyridin-3-yl)imidazo[1,5-c]pyrimidine-1-carbonitrile] | 0.337 | 0.0568 | 0.139
6 | CCOC(=O)c1ncn2c(NCc3c(F)ccc4c3CCO4)ncc(Br)c12 [Example 91, ethyl 8-bromo-5-(((5-fluoro-2,3-dihydrobenzofuran-4-yl)methyl)amino)imidazo[1,5-c]pyrimidine-1-carboxylate] | 0.032 | 0.008 | 0.0085
7 | Cc1ncc(-c2cnc(NCc3c(F)ccc4c3CCO4)n3cncc23)cn1 [Example 50, N-((5-fluoro-2,3-dihydrobenzofuran-4-yl)methyl)-8-(2-methylpyrimidin-5-yl)imidazo[1,5-c]pyrimidin-5-amine] | 0.0742 | 0.0162 | 0.0071
8 | N#Cc1ncn2c(NCc3c(F)ccc4c3CCO4)ncc(-c3cccnc3C(F)F)c12 [Example 73, 8-(2-(difluoromethyl)pyridin-3-yl)-5-(((5-fluoro-2,3-dihydrobenzofuran-4-yl)methyl)amino)imidazo[1,5-c]pyrimidine-1-carbonitrile] | 0.0553 | 0.0564 | 0.0235
9 | Fc1ccc2c(c1CNc1ncc(-c3cccnc3C(F)F)c3cncn13)CCO2 [Example 51, 8-(2-(difluoromethyl)pyridin-3-yl)-N-((5-fluoro-2,3-dihydrobenzofuran-4-yl)methyl)imidazo[1,5-c]pyrimidin-5-amine] | 0.0064 | 0.0094 | 0.0052
10 | C#Cc1ncn2c(NCc3c(F)ccc4c3CCO4)ncc(-c3cccnc3C)c12 [Example 12, 1-Ethynyl-N-((5-fluoro-2,3-dihydrobenzofuran-4-yl)methyl)-8-(2-methylpyridin-3-yl)imidazo[1,5-c]pyrimidin-5-amine] | 0.0489 | 0.0068 | 0.0054
11 | CN(C)CCc1ccc(-c2cnc(NCc3c(F)ccc4c3CCO4)n3cncc23)cn1 [Example 32, 8-(6-(2-(dimethylamino)ethyl)pyridin-3-yl)-N-((5-fluoro-2,3-dihydrobenzofuran-4-yl)methyl)imidazo[1,5-c]pyrimidin-5-amine] | 0.0404 | 0.0247 | 0.0087
12 | N#Cc1ncn2c(NCc3c(F)ccc4c3CCO4)ncc(-c3ccc(CN4CCCC4)cc3)c12 [Example 71, 5-(((5-fluoro-2,3-dihydrobenzofuran-4-yl)methyl)amino)-8-(4-(pyrrolidin-1-ylmethyl)phenyl)imidazo[1,5-c]pyrimidine-1-carbonitrile] | 0.0041 | 0.018 | 0.0079
13 | Cc1ncccc1-c1cnc(NCc2c(F)ccc3c2CCO3)n2cnc(C#N)c12 [Example 69, 5-(((5-fluoro-2,3-dihydrobenzofuran-4-yl)methyl)amino)-8-(2-methylpyridin-3-yl)imidazo[1,5-c]pyrimidine-1-carbonitrile] | 0.0147 | 0.0141 | 0.009
14 | CCOC(=O)c1ncn2c(NCc3c(F)ccc4c3CCO4)ncc(-c3cnc(C)nc3C)c12 [Example 94, ethyl 8-(2,4-dimethylpyrimidin-5-yl)-5-(((5-fluoro-2,3-dihydrobenzofuran-4-yl)methyl)amino)imidazo[1,5-c]pyrimidine-1-carboxylate] | 0.0036 | 0.0057 | 0.0043
15 | N#Cc1ncn2c(NCc3c(F)ccc4c3CCO4)ncc(-c3ccc(N4CCNCC4)nc3)c12 [Example 86, 5-(((5-fluoro-2,3-dihydrobenzofuran-4-yl)methyl)amino)-8-(6-(piperazin-1-yl)pyridin-3-yl)imidazo[1,5-c]pyrimidine-1-carbonitrile] | 0.0025 | 0.0176 | 0.0045
16 | CN(C)Cc1ccc(-c2cnc(NCc3c(F)ccc4c3CCO4)n3cncc23)cc1 [Example 17, 8-(4-((dimethylamino)methyl)phenyl)-N-((5-fluoro-2,3-dihydrobenzofuran-4-yl)methyl)imidazo[1,5-c]pyrimidin-5-amine] | 0.0321 | 0.0257 | 0.0126
17 | CCOC(=O)c1ncn2c(NCc3cc(OC)c(F)cc3F)ncc(-c3cccnc3C)c12 [Example 96, ethyl 5-((2,4-difluoro-5-methoxybenzyl)amino)-8-(2-methylpyridin-3-yl)imidazo[1,5-c]pyrimidine-1-carboxylate] | 0.114 | 0.0168 | 0.0158
18 | CCC(O)c1ncc(-c2cnc(NCc3c(F)ccc4c3CCO4)n3cnc(C#N)c23)c(C)n1 (stereo not drawn) [Example 80, 5-(((5-fluoro-2,3-dihydrobenzofuran-4-yl)methyl)amino)-8-(2-(1-hydroxypropyl)-4-methylpyrimidin-5-yl)imidazo[1,5-c]pyrimidine-1-carbonitrile] | 0.0142 | 0.0345 | 0.0105
19 | CS(=O)(=O)Nc1ccc(-c2cnc(NCc3c(F)ccc4c3CCO4)n3cncc23)cc1 [Example 29, N-(4-(5-(((5-fluoro-2,3-dihydrobenzofuran-4-yl)methyl)amino)imidazo[1,5-c]pyrimidin-8-yl)phenyl)methanesulfonamide] | 0.0734 | 0.0329 | 0.0375
20 | Cc1ncncc1-c1cnc(NCc2c(F)ccc3c2CCO3)n2cncc12 [Example 47, N-((5-fluoro-2,3-dihydrobenzofuran-4-yl)methyl)-8-(4-methylpyrimidin-5-yl)imidazo[1,5-c]pyrimidin-5-amine] | 0.0424 | 0.0143 | 0.0081
21 | Cc1ncc(-c2cnc(NCc3c(F)ccc4c3CCO4)n3cnc(Cl)c23)c(C)n1 [Example 9, 1-chloro-8-(2,4-dimethylpyrimidin-5-yl)-N-((5-fluoro-2,3-dihydrobenzofuran-4-yl)methyl)imidazo[1,5-c]pyrimidin-5-amine] | 0.0109 | 0.011 | 0.0104
